Assay results as given in paper PMC12081497, “Design, synthesis, and anti-breast cancer activity evaluation of novel 3-cyanopyridine derivatives as PIM-1 inhibitors” (Molecular Diversity, 2024).
Entries after “also recorded” stand apart in the source; their conditions may differ. Where two headings read alike, the source gives them in different places.

Key:
[1] = system: MCF-7 human cancer cell line; assay: In vitro anti-proliferative MTT assay; assay type: cell-based; conditions: MTT, MCF-7, 48 h treatment, read-out: Cytotoxicity IC50, SD (±), MCF7
Experimental: In the present study, all synthesized cyanopyridine hybrids were subjected to in vitro cytotoxicity testing using the MTT assay method against MCF-7 human cancer.
All cell lines were maintained in RPMI1640 medium containing 10% FBS at 37 °C in 5% CO2 humidified incubator. Cell proliferation assay was determined by the MTT (3-[4,5-dimethyl-2-thiazolyl]-2,5- diphenyl-2H-tetrazolium bromide) method. Briefly, cells were plated in triplicate wells (3–5 × 10^4 cells/well) of 96-well flat-bottomed plates and incubated overnight prior to drug exposure and then treated with different concentrations of the tested compounds for 48 h. After that, 20 μL of MTT reagent at a final concentration of 0.5 mg/mL was added to each well. Cells were then incubated for 2 h with MTT, after which 100 μL of DMSO solution was added to dissolve the formazan salt resulting from the reduction of MTT and the absorbance was read at 570 nm using an automatic plate reader. The IC50 values were calculated according to inhibition ratios from three independent experiments.

PIM-1 kinase = target: T1, PIM-1 kinase (Homo sapiens, UniProt P11309); assay: PIM-1 kinase inhibition assay (Promega PIM-1 kinase assay kit, ADP-Glo); assay type: biochemical; conditions: concentrations 10, 1, 0.1 and 0.01 µM, read-out: PIM1-Kinase IC50
T1 construct: purchased Promega V4032
T1 sequence (P11309 whole entry): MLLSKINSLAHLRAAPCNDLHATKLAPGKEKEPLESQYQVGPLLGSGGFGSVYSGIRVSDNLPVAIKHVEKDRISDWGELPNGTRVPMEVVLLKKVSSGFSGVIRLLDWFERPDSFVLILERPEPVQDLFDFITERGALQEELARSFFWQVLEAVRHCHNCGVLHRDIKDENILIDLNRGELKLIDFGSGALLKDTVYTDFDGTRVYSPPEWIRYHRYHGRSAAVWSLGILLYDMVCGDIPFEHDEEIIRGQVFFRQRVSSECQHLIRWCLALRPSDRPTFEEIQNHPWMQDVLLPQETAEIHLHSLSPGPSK

MCF-7 cells [2] = assay: Apoptosis assay, Annexin V/PI flow cytometry; assay type: cell-based, human; conditions: MCF-7, 24 h
Experimental: Compound 7h was chosen to investigate its abilities in inducing cancer cell apoptosis. Cell cycle analysis of MCF-7 after treatment with compound 7h. To corroborate the ability of the compound to induce apoptosis, cells were stained with Annexin V/PI, incubated for 24 h, and analyzed.
The MCF-7 was treated with compound 7h for 24 h. After treatment, the cells were suspended in 0.5 mL of PBS, collected by centrifugation, and fixed in ice-cold 70% (v/ v) ethanol, centrifuged the ethanol-suspended cells for 5 min, suspended in 5 mL PBS and centrifuged for 5 min, re-suspended with 1 mL PI staining solution (0.1 mg/ml RNase) + PE Annexin V (component no. 51-65875X) and kept in dark at 37 °C for 10 min, finally analyzed by flow cytometry using FACS caliber (Becton Dickinson). The cell cycle distributions were calculated using Phoenix Flow Systems and Verity Software House.

MCF-7 cells [3] = assay: Flow cytometric cell cycle analysis; assay type: cell-based, human; conditions: for Cell cycle comment (phase of arrest): MCF-7, 24 h
Experimental: The cell cycle encompasses four distinct phases: G1 phase, S phase (synthesis), G2 phase, and M phase. During G1, cellular amplification and preparation for DNA replication take place. The S phase involves DNA replication and chromatid duplication. In the G2 phase, DNA repair and further growth occur. The M phase is characterized by nuclear division. The investigation of the impact of compound 7h on cell cycle progression and the induction of apoptosis in MCF-7 cells. […] Subsequently, the cells were stained with PI/Annexin V and analyzed using flow cytometry (BD FASCCalibur). Upon analyzing the results (Table 3, Fig. 6), it was evident that the percentage of cell accumulation in the S phase increased in MCF-7 cells treated with compound 7h after 24 h of incubation.
Cell cycle analysis MCF-7 cell was seeded into six-well plates at a density of 2 × 10^5 cell per well and incubated for 24 h. The cell was cultured in RPMI 1640 supplemented with fetal bovine serum (FBS, 10%) and incubated at 37 °C and 5% CO2. The medium was removed and replaced with medium (final DMSO concentration, 1% v/v) containing compound 7h (0.283 µM). After incubation for 24 h and 48 h, the cell layer was trypsinized and washed with cold phosphate buffered saline (PBS) and fixed with 70% ethanol. The fixed cells were rinsed with PBS and then stained with the DNA fluorochrome PI in a solution containing Triton X-100 as well as RNase, keep 15 min at 37 °C according to the instruction manual. Then the samples were analyzed with a FACS Caliber flow cytometer (Becton Dickinson & Co., Franklin Lakes, NJ). The number of cells analyzed for each sample was 10,000 [39].

IC50 (PIM-1 kinase): 281 ± 12 nM
melting point: 295 to 297 °C
Compound: COc1cc(-c2cc(-c3cccnc3)[nH]c(=O)c2C#N)ccc1OCC(=O)Nc1ccccc1 [7h, 2-(4-(3-Cyano-2-oxo-6-(pyridin-3-yl)-1,2-dihydropyridin-4-yl)-2-methoxyphenoxy)-N-phenylacetamide]
IC50 ([1]; Homo sapiens, MCF7, 48 h): 1890 nM
IC50 [1]: 1890 ± 80 nM
Apoptosis Late (MCF-7 cells [2]; control 0.27): 22.81%
Apoptosis Early (MCF-7 cells [2]; control 0.41): 15.42%
Necrosis (MCF-7 cells [2]; control 1.61): 3.95%
Apoptosis Total (MCF-7 cells [2]; control 2.29): 42.18%
Cell cycle comment (phase of arrest) (MCF-7 cells [3]): arrested the tumor cells at the S phase; also recorded: cell cycle arrest at the S phase
Cell cycle comment (phase of arrest) (MCF-7 cells [3]; listed as 7 h): Cell growth arrest@ S
DNA content %G2/M (MCF-7 cells [3]; MCF-7, IC50 concentration of 7h, 24 h, control 13.14): 12.11%
DNA content %S (MCF-7 cells [3]; MCF-7, IC50 concentration of 7h, 24 h, control 25.83): 33.61%
DNA content %G0-G1 (MCF-7 cells [3]; MCF-7, IC50 concentration of 7h, 24 h, control 61.03): 54.28%
